The text below walks through data of US20080194546A1, “Pyrido-, Pyrazo- and Pyrimido-Pyrimidine Derivatives as mTOR Inhibitors” (KuDOS Pharmaceuticals Limited, priority 2005, published 2008).

The first assay has as its system phosphorylation of Serine 473 in Akt in MDA-MB-468 cells. Description: In Vitro phospho-Ser473 Akt Assay (Acumen Explorer). Type of assay: cell-based. As to conditions: Homo sapiens, MDA-MB-468, read-out: IC50 values against mTOR (phospho-Ser473 Akt assay).
By IC50 is commonly meant the concentration that gives 50% inhibition. For `C[C@H]1COCCN1c1nc(N2CCOC[C@@H]2C)c2ccc(-c3ccc(CNC4CC4)o3)nc2n1` [Example 17e], the concentration for half-maximal inhibition (IC50) was below 11 µM. Same read-out and setting: as for `COCCNc1nc(N2CCOC[C@@H]2C)c2ccc(-c3ccc(OC)c(CO)c3)nc2n1` [Example 28by], the figure is below 11 µM; as for `C[C@H]1COCCN1c1nc(N2CCOC[C@@H]2C)c2ccc(-c3cccc(C(=O)N4CCN(C)CC4)c3)nc2n1` [Example 11bf], below 11 µM; as for `COc1ccc(-c2ccc3c(N4CCOC[C@@H]4C)nc(N4CCC(Cc5ccccc5)CC4)nc3n2)cc1CO` [Example 28al], below 11 µM. Still for that read-out and setting: as for `C[C@H]1COCCN1c1nc(N2CCOC[C@@H]2C)c2ccc(-c3ccc(F)nc3)nc2n1` [Example 11ah], the figure is below 11 µM; as for `C[C@@H]1CN(c2nc(N3CCOC[C@@H]3C)c3ccc(-c4ccncc4)nc3n2)C[C@H](C)O1` [Example 11ce], below 11 µM. Same read-out and setting: as for `C[C@H]1COCCN1c1nc(N2CCOC[C@@H]2C)c2ccc(-c3ccc(F)c(CNC(=O)C(F)(F)F)c3)nc2n1` [Example 15z], the figure is below 11 µM; as for `CNCCNc1nc(N2CCOC[C@@H]2C)c2ccc(-c3ccc(OC)c(CO)c3)nc2n1` [Example 28bv], below 11 µM; as for `COCC(=O)NCc1cc(-c2ccc3c(N4CCOC[C@@H]4C)nc(N4CCOC[C@@H]4C)nc3n2)ccc1F` [Example 15u], below 11 µM. In the case of `Cc1nn(C)c(C)c1-c1nc(N2CCOC[C@@H]2C)c2ccc(-c3cccc(CO)c3)nc2n1` [Example 29w], the IC50 is below 11 µM. On the same count and under the same terms, as for `CC(=O)N(C)Cc1ccc(-c2ccc3c(N4CCOC[C@@H]4C)nc(N4CCOC[C@@H]4C)nc3n2)cc1` [Example 15r], the figure is below 11 µM; as for `COc1ccc(-c2ccc3c(N4CCOC[C@@H]4C)nc(N4CCC5CCCCC5C4)nc3n2)cc1CO` (some centres unmarked) [Example 28ag], below 11 µM; as for `COc1ccc(-c2ccc3c(N4CCOC[C@@H]4C)nc(-c4cccc(CN)c4)nc3n2)cc1CO` [Example 29e], below 11 µM. The same measure, in the same setting: as for `COc1cccc(-c2nc(N3CCOC[C@@H]3C)c3ccc(-c4ccc(OC)c(CO)c4)nc3n2)c1` [Example 29o], the figure is below 11 µM; as for `C[C@H]1COCCN1c1nc(-c2cnn(C)c2)nc2nc(-c3cccc(CO)c3)ccc12` [Example 29v], below 11 µM; as for `COc1ccc(-c2ccc3c(N4CCOC[C@@H]4C)nc(N4CCN(CCO)CC4)nc3n2)cc1CO` [Example 28ci], below 0.3 µM. On the same count and under the same terms, as for `COc1ccc(-c2ccc3c(N4CCOC[C@@H]4C)nc(-c4cccc(C(F)(F)F)c4)nc3n2)cc1CO` [Example 29m], the figure is below 11 µM; as for `C[C@H]1COCCN1c1nc(N2CCC(C(N)=O)CC2)nc2nc(-c3ccc(Cl)cc3)ccc12` [Example 28dj], below 11 µM; as for `COc1ccc(-c2ccc3c(N4CCOC[C@@H]4C)nc(N4CCOC[C@@H]4C)nc3n2)cc1CNC1CC1` [Example 14al], below 0.1 µM. As to `C[C@H]1COCCN1c1nc(-c2cccnc2F)nc2nc(-c3cccc(CO)c3)ccc12` [Example 29u], the IC50 is below 11 µM. The same measure, in the same setting: as for `COc1ccc(-c2ccc3c(N4CCOC[C@@H]4C)nc(N4CCC(N5CCCCC5)CC4)nc3n2)cc1CO` [Example 28z], the figure is below 11 µM.

As to `C[C@H]1COCCN1c1nc(N2CCOC[C@@H]2C)c2ccc(-c3ccnc(F)c3)nc2n1` [Example 11au], the IC50 was below 11 µM. Still for that read-out and setting: as for `C[C@@H]1CCCCN1c1nc(N2CCOC[C@@H]2C)c2ccc(-c3ccc(Cl)cc3)nc2n1` [Example 28dg], the figure is below 11 µM; as for `COc1ccc(-c2ccc3c(N4CCOC[C@@H]4C)nc(NCCN(C)C)nc3n2)cc1CO` [Example 28cb], below 11 µM; as for `C[C@H]1COCCN1c1nc(N2CCOC[C@@H]2C)c2ccc(-c3ccc(F)c(CNCCF)c3)nc2n1` [Example 14ab], below 11 µM.

Consider `COc1ccc(-c2ccc3c(N4CCOC[C@@H]4C)nc(NC(C)CN(C)C)nc3n2)cc1CO` (some centres unmarked) [Example 28ct], for which the IC50 was below 11 µM.

As to `C[C@H]1COCCN1c1nc(N2CCOC[C@@H]2C)c2ccc(-c3cccc(C(=O)N4CC[C@@H](O)C4)c3)nc2n1` [Example 13g], the IC50 is below 11 µM. On the same count and under the same terms, as for `CC(C)CC(=O)NCc1cccc(-c2ccc3c(N4CCOC[C@@H]4C)nc(N4CCOC[C@@H]4C)nc3n2)c1` [Example 15f], the figure is below 11 µM; as for `COC(=O)c1cccc(-c2nc(N3CCOC[C@@H]3C)c3ccc(-c4ccc(OC)c(CO)c4)nc3n2)c1` [Example 29h], below 11 µM.

On to `CC(C)C(=O)NCc1cc(-c2ccc3c(N4CCOC[C@@H]4C)nc(N4CCOC[C@@H]4C)nc3n2)ccc1F` [Example 15w], for which the IC50 was below 11 µM.

For `C[C@H]1COCCN1c1nc(N2CCOC[C@@H]2C)c2ccc(-c3ccc(F)c(CNC4CC4)c3)nc2n1` [Example 14v], the IC50 is below 11 µM. The same measure, in the same setting: as for `CC(=O)NCc1cc(-c2ccc3c(N4CCOC[C@@H]4C)nc(N4CCOC[C@@H]4C)nc3n2)ccc1F` [Example 15t], the figure is below 11 µM; as for `CCOc1nc(N2CCOC[C@@H]2C)c2ccc(-c3ccc(OC)c(CO)c3)nc2n1` [Example 28cv], below 11 µM. Consider `COc1ccc(-c2ccc3c(N4CCOC[C@@H]4C)nc(NCCO)nc3n2)cc1CO` [Example 28bs], for which the IC50 is below 11 µM. On the same count and under the same terms, as for `COc1ccc(-c2ccc3c(N4CCOC[C@@H]4C)nc(N4CCC(N5CCCC5)CC4)nc3n2)cc1CO` [Example 28ai], the figure is below 11 µM. The same measure, in the same setting: as for `C[C@H]1COCCN1c1nc(N2CCOC[C@@H]2C)c2ccc(-c3cccc(C(=O)NCC(F)(F)F)c3)nc2n1` [Example 13f], the figure is below 11 µM.

With `COC(=O)[C@@H]1C[C@@H](O)CN1c1nc(N2CCOC[C@@H]2C)c2ccc(-c3ccc(OC)c(CO)c3)nc2n1` [Example 28aa], the IC50 was below 11 µM. For `CNC(=O)c1ccc(-c2ccc3c(N4CCOC[C@@H]4C)nc(N4CCOC[C@@H]4C)nc3n2)cc1` [Example 11ak], the IC50 was below 0.1 µM. Same read-out and setting: as for `COc1ccc(-c2ccc3c(N4CCOC[C@@H]4C)nc(Nc4cccnc4)nc3n2)cc1CO` [Example 28o], the figure is below 11 µM; as for `COc1ccc(-c2ccc3c(N4CCOC[C@@H]4C)nc(-c4cccc(C)c4)nc3n2)cc1CO` [Example 29n], below 11 µM; as for `C[C@H]1COCCN1c1nc(N2CCOC[C@@H]2C)c2ccc(-c3ccc(F)c(CNC(=O)C4CCC4)c3)nc2n1` [Example 15x], below 11 µM. Take `C[C@H]1COCCN1c1nc(N2CCOC[C@@H]2C)c2ccc(-c3ccc(CNCC(N)=O)o3)nc2n1` [Example 17j]: the IC50 is below 11 µM.

For `C[C@H]1COCCN1c1nc(N2CCCC(CO)C2)nc2nc(-c3cccc(C(N)=O)c3)ccc12` (some centres unmarked) [Example 12d], the IC50 is below 11 µM. Same read-out and setting: as for `C[C@H]1COCCN1c1nc(N2CCOC[C@@H]2C)c2ccc(-c3cccnc3)nc2n1` [Example 11bu], the figure is below 11 µM; as for `C[C@H]1COCCN1c1nc(N2CCOC[C@@H]2C)c2ccc(-c3ccncc3)nc2n1` [Example 11ar], below 11 µM; as for `C[C@H]1COCCN1c1nc(N2CCOC[C@@H]2C)c2ccc(-c3cccc(CS(C)(=O)=O)c3)nc2n1` [Example 14t], below 11 µM. `C[C@H]1COCCN1c1nc(N2CCOC[C@@H]2C)c2ccc(-c3ccc(CNc4cc[nH]n4)o3)nc2n1` [Example 17i]: the IC50 was below 11 µM. Still for that read-out and setting: as for `COCCN(C)Cc1cc(-c2ccc3c(N4CCOC[C@@H]4C)nc(N4CCOC[C@@H]4C)nc3n2)ccc1F` [Example 14aj], the figure is below 11 µM; as for `C[C@H]1COCCN1c1nc(N2CCOC[C@@H]2C)c2ccc(-c3cccc(C#N)c3)nc2n1` [Example 11aw], below 11 µM; as for `CNc1nc(N2CCOC[C@@H]2C)c2ccc(-c3ccc(OC)c(CO)c3)nc2n1` [28 bp], below 11 µM. The same measure, in the same setting: as for `CCN(C)C(=O)c1cc(-c2ccc3c(N4CCOC[C@@H]4C)nc(N4CCOC[C@@H]4C)nc3n2)ccc1OC` [Example 13u], the figure is below 11 µM. On the same count and under the same terms, as for `C[C@H]1COCCN1c1nc(N2CCOC[C@@H]2C)c2ccc(-c3ccc4nc[nH]c(=O)c4c3)nc2n1` [Example 11cl], the figure is below 11 µM; as for `COc1ccc(-c2ccc3c(N4CCOCC4C)nc(N4CCOC[C@@H]4C)nc3n2)cc1CNC1CCCCCCC1` (some centres unmarked) [Example 14bf], below 0.1 µM. For the molecule `C[C@@H]1CN(c2nc(N3CCOC[C@@H]3C)c3ccc(-c4ccccc4)nc3n2)C[C@H](C)O1` [Example 11j], the IC50 is below 0.3 µM.

The same assay, now with this note: Homo sapiens; MDA-MB-468 cells, 2 hours; read-out: IC50, phospho-Ser473 Akt assay (cellular IC50, measured by pAkt).
For the molecule `C[C@H]1COCCN1c1nc(N2CCOC[C@@H]2C)c2ccc(-c3cccc(N)c3)nc2n1` [Example 11dr, 3-[2,4-Bis-((S)-3-methyl-morpholin-4-yl)-pyrido[2,3-d]pyrimidin-7-yl]-phenylamine], the IC50 worked out at 0.0141 µM. The same measure, in the same setting: as for `CNC(=O)C1CCN(c2nc(N3CCOC[C@@H]3C)c3ccc(-c4ccc(N)nc4)nc3n2)CC1` [Example 28dk], the figure is 0.682 µM; as for `C[C@H]1COCCN1c1nc(N2CCOC[C@@H]2C)c2ccc(-c3ccc4[nH]nc(N)c4c3)nc2n1` [Example 11ds, 5-[2,4-Bis-((S)-3-methyl-morpholin-4-yl)-pyrido[2,3-d]pyrimidin-7-yl]-1H-indazol-3-ylamine], 0.0607 µM. On the same count and under the same terms, as for `C[C@H]1COCCN1c1nc(N2CCOCC2)nc2nc(-c3ccc(N)nc3)ccc12` [Example 28dl], the figure is 0.295 µM; as for `C[C@H]1COCCN1c1nc(N2CCOC[C@@H]2C)c2ccc(-c3ccc4c(c3)C(=O)NCCN4)nc2n1` [Example 11df, 7-[2,4-bis-((S)-3-methyl-morpholin-4-yl)-pyrido[2,3-d]pyrimidin-7-yl]-1,2,3,4-tetrahydro-benzo[e][1,4]diazepin-5-one], 0.381 µM; as for `CC(C)S(=O)(=O)Nc1cccc(-c2ccc3c(N4CCOC[C@@H]4C)nc(N4CCOC[C@@H]4C)nc3n2)c1` [Example 25b], 0.505 µM.

The same assay, now with this note: Homo sapiens; MDA-MB-468 cells, compounds of Formula I(B); read-out: IC50 values against mTOR (phospho-Ser473 Akt assay).
In the case of `COc1ccc(-c2ccc3c(N4CCOC[C@@H]4C)nc(N4CCOC[C@@H]4C)nc3n2)cc1CO` [Example 11a], the IC50 is below 0.1 µM.

Turning to `CNC(=O)c1cccc(-c2ccc3c(N4CCOC[C@@H]4C)nc(N4CCOC[C@@H]4C)nc3n2)c1` [Example 11ap], the IC50 was below 0.1 µM.
